Experimental findings from patent publication US9688702B2, “Alpha-amino boronic acid derivatives, selective immunoproteasome inhibitors” (Ares Trading S.A, priority 2011, dated 2017) are described below.

As a reminder, the IC50 is the concentration that gives 50% inhibition.

The structures appear in SMILES notation. Structures can show the parent of a compound that is named as a salt.

Assay [1] addresses Beta5 (purified human constitutive proteasome) (Homo sapiens, UniProt P28074). In words: Determination of Beta5 activity (fluorescence intensity assay, Suc-LLVY-AMC). The assay is classed as biochemical. The settings on record: purified human constitutive proteasome 1.0 nM, 40 μM Suc-LLVY-AMC, 37° C. As to the method: Measurement of Beta5 inhibition is performed in 384 well format based on fluorescence intensity assay.
Purified human constitutive proteasome (1.0 nM) and serial diluted compounds in DMSO (range of concentrations from 10 μM to 38 pM) or controls (0.5% DMSO) are incubated for 30 minutes at 37° C. in assay buffer containing 50 mM Tris pH 7.4 and 0.03% SDS. The reaction is initiated by the addition of the fluorogenic peptide substrate, Suc-LLVY-AMC (Bachem 1-1395), at a concentration of 40 μM. After 90 minutes of incubation at 37° C., fluorescence intensity is measured at λex=350 nm and λem=450 nm with a fluorescence reader (BMG Pherastar reader or equivalent).

Assay [2] has as its target LMP7 (purified human immuno proteasome) (Homo sapiens, UniProt P28062). In words: Determination of LMP7 activity (fluorescence intensity assay, Suc-LLVY-AMC). The assay is classed as biochemical. Particulars: for IC50: 40 μM Suc-LLVY-AMC, 37° C. As to the method:
Measurement of LMP7 inhibition is performed in 384 well format based on fluorescence intensity assay.
Purified human immuno proteasome (0.5 nM) and serial diluted compounds in DMSO (range of concentrations from 10 μM to 38 pM) or controls (0.5% DMSO) are incubated for 30 minutes at 37° C. in assay buffer containing 50 mM Tris pH 7.4 and 0.03% SDS. The reaction is initiated by the addition of the fluorogenic peptide substrate, Suc-LLVY-AMC (Bachem I-1395), at a concentration of 40 μM. After 90 minutes of incubation at 37° C., fluorescence intensity is measured at λex=350 nm and λem=450 nm with a fluorescence reader (BMG Pherastar reader or equivalent).
Purified human immuno proteasome (0.25 nM) and serial diluted compounds in DMSO (range of concentrations from 10 μM to 38 pM) or controls (0.5% DMSO) are incubated for 30 minutes at 37° C. in assay buffer containing 50 mM Tris pH 7.4 and 0.03% SDS. The reaction is initiated by the addition of the fluorogenic peptide substrate, Suc-LLVY-AMC (Bachem I-1395), at a concentration of 40 μM. After 90 minutes of incubation at 37° C., fluorescence intensity is measured at λex=350 nm and λem=450 nm with a fluorescence reader (BMG Pherastar reader or equivalent).

Where [3] appears, read: purified human immuno proteasome 0.25 nM (examples 79, 80, 83, 84, 85, 87, 88, 89, 90, 91, 93, 94, 96, 97, 101 and 110).
The mark [4] stands for this setting: purified human immuno proteasome 0.5 nM.

Turning to `O=C(CCn1cnc2ccccc21)N[C@@H](Cc1coc2ccccc12)B(O)O` [Example 88, (R)-(1-(3-(1H-benzo[d]imidazol-1-yl)propanamido)-2-(benzofuran-3-yl)ethyl)boronic acid], the IC50 in assay [1] and in assay [2] (setting [3]) was less than 50 nM each time. In addition, the “Selectivity LMP7 vs Beta5” value in assay [2] was “++ (++: 10 < Selectivity < 30)”.
For `CCOc1cccc(C[C@H](NC(=O)CCc2noc(-c3ccccc3)n2)B(O)O)c1` [Example 68, (R)-(2-(3-ethoxyphenyl)-1-(3-(5-phenyl-1,2,4-oxadiazol-3-yl)propanamido)ethyl)boronic acid], the IC50 in assay [1] was 500 to 5000 nM; in assay [2] (setting [4]), less than 50 nM. Besides, the “Selectivity LMP7 vs Beta5” value in assay [2] is recorded as “+++ (+++: Selectivity > 30)”.
For `CCc1cccc(C[C@H](NC(=O)CCn2ncc3ccccc32)B(O)O)c1` [Example 28, ((1R)-2-(3-ethylphenyl)-1-{[3-(1H-indazol-1-yl)propanoyl]amino}ethyl)boronic acid], the IC50 in assay [1] is 500 to 5000 nM; in assay [2] (setting [4]), 50 to 500 nM. Further, the “Selectivity LMP7 vs Beta5” value in assay [2] was “++ (++: 10 < Selectivity < 30)”.
As to `CCc1cccc(C[C@H](NC(=O)CCC(=O)c2ccccc2OC)B(O)O)c1` [Example 8, ((1R)-2-(3-ethylphenyl)-1-{[4-(2-methoxyphenyl)-4-oxobutanoyl]amino}ethyl)boronic acid], the figures for the IC50 in assay [1] and in assay [2] (setting [4]) were greater than 5000 nM and 50 to 500 nM, respectively.
`COc1ccc(C(=O)CCC(=O)N[C@@H](Cc2cccc(OC(F)(F)F)c2)B(O)O)cc1` [Example 48, (R)-(1-(4-(4-methoxyphenyl)-4-oxobutanamido)-2-(3-(trifluoromethoxy)phenyl)ethyl)boronic acid]: the values for the IC50 in assay [1] and in assay [2] (setting [4]) were 500 to 5000 nM and 50 to 500 nM, respectively. The “Selectivity LMP7 vs Beta5” value in assay [2] is on record as “++ (++: 10 < Selectivity < 30)”.
Consider `COc1cc(C[C@H](NC(=O)CCn2cnc3ccccc32)B(O)O)ccc1C` [Example 72, (R)-(1-(3-(1H-benzo[d]imidazol-1-yl)propanamido)-2-(3-methoxy-4-methylphenyl)ethyl)boronic acid], for which the IC50 lay within 500 to 5000 nM in assay [1] and 50 to 500 nM in assay [2] (setting [4]). Besides, the “Selectivity LMP7 vs Beta5” value in assay [2] was “++ (++: 10 < Selectivity < 30)”.
For the molecule `O=C(CCn1nnc2ccccc21)N[C@@H](Cc1ccsc1)B(O)O` [Example 35, [(1R)-1-{[3-(1H-1,2,3-benzotriazol-1-yl)propanoyl]amino}-2-(3-thienyl)ethyl]boronic acid], the half-inhibitory concentration (IC50) in assay [1] is 50 to 500 nM; in assay [2] (setting [4]), less than 50 nM. The “Selectivity LMP7 vs Beta5” value in assay [2] is “+ (+: Selectivity < 10)”.
On the same counts, the results for `CCc1cccc(C[C@H](NC(=O)CCn2c(=O)sc3ccccc32)B(O)O)c1` [Example 30, ((1R)-2-(3-ethylphenyl)-1-{[3-(2-oxo-1,3-benzothiazol-3(2H)-yl)propanoyl]amino}ethyl)boronic acid] are 50 to 500 nM, less than 50 nM and “++ (++: 10 < Selectivity < 30)”.
For the molecule `O=C(CCn1cc(-c2ccccc2)nn1)N[C@@H](Cc1ccc(F)c(C(F)(F)F)c1)B(O)O` [Example 71, (R)-(2-(4-fluoro-3-(trifluoromethyl)phenyl)-1-(3-(4-phenyl-1H-1,2,3-triazol-1-yl)propanamido)ethyl)boronic acid], the IC50 in assay [1] is 50 to 500 nM; in assay [2] (setting [4]) it was less than 50 nM. Moreover, the “Selectivity LMP7 vs Beta5” value in assay [2] is listed as “++ (++: 10 < Selectivity < 30)”.
Consider `COc1ccc(C(=O)CCC(=O)N[C@@H](Cc2ccsc2)B(O)O)c(OC)c1` [Example 13, [(1R)-1-{[4-(2,4-dimethoxyphenyl)-4-oxobutanoyl]amino}-2-(3-thienyl)ethyl]boronic acid], for which the IC50 in assay [1] was greater than 5000 nM; in assay [2] (setting [4]), 50 to 500 nM. Moreover, in assay [2], the “Selectivity LMP7 vs Beta5” value is on record as “++ (++: 10 < Selectivity < 30)”.
As for `COc1ccc(C(=O)C[C@H](Cc2ccccc2)C(=O)N[C@@H](Cc2ccsc2)B(O)O)cc1` (single isomer, unassigned) [Example 24], the IC50 was 50 to 500 nM in assay [1] and less than 50 nM in assay [2] (setting [4]). In addition, the “Selectivity LMP7 vs Beta5” value in assay [2] is “+++ (+++: Selectivity > 30)”.
Take `O=C(CCn1cnc2ccccc21)N[C@@H](Cc1ccc(OC(F)(F)F)cc1)B(O)O` [Example 51, (R)-(1-(3-(1H-benzo[d]imidazol-1-yl)propanamido)-2-(4-(trifluoromethoxy)phenyl)ethyl)boronic acid]: the half-inhibitory concentration (IC50) in assay [1] is 50 to 500 nM; in assay [2] (setting [4]), less than 50 nM. Further, the “Selectivity LMP7 vs Beta5” value in assay [2] was “+ (+: Selectivity < 10)”.
In the case of `O=C(Cc1cnc[nH]1)N[C@@H](Cc1coc2ccccc12)B(O)O` [Example 83, (R)-(1-(2-(1H-imidazol-5-yl)acetamido)-2-(benzofuran-3-yl)ethyl) boronic acid hydrochloride], the IC50 in assay [1] was 50 to 500 nM; in assay [2] (setting [3]), less than 50 nM. The “Selectivity LMP7 vs Beta5” value in assay [2] is reported as “++ (++: 10 < Selectivity < 30)”.
As to `O=C(CC(C(=O)N[C@@H](Cc1ccsc1)B(O)O)c1cccc(Cl)c1)c1ccccc1` (mixture of isomers) [Example 3, [(1R)-1-{[2-(RS)-(3-chlorophenyl)-4-oxo-4-phenylbutanoyl]amino}-2-(3-thienyl)ethyl]boronic acid], the IC50 in assay [1] was greater than 5000 nM; in assay [2] (setting [4]) it was 50 to 500 nM. Also, the “Selectivity LMP7 vs Beta5” value in assay [2] was “+++ (+++: Selectivity > 30)”.
Take `CCc1cccc(C[C@H](NC(=O)C(Cn2cc(-c3ccccc3)nn2)Cn2ccsc2=O)B(O)O)c1` (stereo partly drawn) [Example 110, ((1R)-2-(3-ethylphenyl)-1-(3-(2-oxothiazol-3(2H)-yl)-2-((4-phenyl-1H-1,2,3-triazol-1-yl)methyl)propanamido)ethyl)boronic acid]: the IC50 in assay [1] and in assay [2] (setting [3]) was less than 50 nM throughout. The “Selectivity LMP7 vs Beta5” value in assay [2] is “++ (++: 10 < Selectivity < 30)”.
Turning to `COc1cccc(CCC(=O)N[C@@H](Cc2coc3ccccc23)B(O)O)c1` [Example 84, (R)-(2-(benzofuran-3-yl)-1-(3-(3-methoxyphenyl)propanamido)ethyl) boronic acid], the half-inhibitory concentration (IC50) in assay [1] and in assay [2] (setting [3]) was less than 50 nM in each case. Also, the “Selectivity LMP7 vs Beta5” value in assay [2] is given as “++ (++: 10 < Selectivity < 30)”.
Regarding `O=C(CCn1c(=O)sc2ccccc21)N[C@@H](Cc1csc2ccccc12)B(O)O` [Example 105, (R)-(2-(benzo[b]thiophen-3-yl)-1-(3-(2-oxobenzo[d]thiazol-3(2H)-yl)propanamido)ethyl)boronic acid], the half-inhibitory concentration (IC50) in assay [1] and in assay [2] (setting [4]) was less than 50 nM in each case. Also, the “Selectivity LMP7 vs Beta5” value in assay [2] is “++ (++: 10 < Selectivity < 30)”.
`COc1ccc(C(=O)CC(Cc2ccccc2)C(=O)N[C@@H](Cc2cccc(C(F)(F)F)c2)B(O)O)cc1` (mixture of isomers) [Example 27, {(1R)-1-{[2-(RS)-benzyl-4-(4-methoxyphenyl)-4-oxobutanoyl]amino}-2-[3-(trifluoromethyl)phenyl]ethyl}boronic acid]: the IC50 was 500 to 5000 nM in assay [1] and less than 50 nM in assay [2] (setting [4]). In addition, the “Selectivity LMP7 vs Beta5” value in assay [2] is listed as “+++ (+++: Selectivity > 30)”.
As to `O=C(CCn1cc(-c2ccccc2)nn1)N[C@@H](Cc1ccc2c(c1)OCO2)B(O)O` [Example 107, (R)-(2-(benzo[d][1,3]dioxol-5-yl)-1-(3-(4-phenyl-1H-1,2,3-triazol-1-yl)propanamido)ethyl)boronic acid], the IC50 in assay [1] and in assay [2] (setting [4]) was less than 50 nM in each case. The “Selectivity LMP7 vs Beta5” value in assay [2] is on record as “++ (++: 10 < Selectivity < 30)”.
With `COc1ccc(C(=O)CCC(=O)N[C@@H](Cc2ccc(OC)c(C(F)(F)F)c2)B(O)O)cc1` [Example 46, (R)-(2-(4-methoxy-3-(trifluoromethyl)phenyl)-1-(4-(4-methoxyphenyl)-4-oxobutanamido)ethyl)boronic acid], the figures for the IC50 in assay [1] and in assay [2] (setting [4]) were greater than 5000 nM and 50 to 500 nM, respectively.
On the same counts, the results for `O=C(N[C@@H](Cc1ccsc1)B(O)O)[C@H]1CCCC[C@@H]1C(=O)c1ccccc1` (racemic) [Example 2, [(1R)-1-({[(1RS,2RS)-2-benzoylcyclohexyl]carbonyl}amino)-2-(3-thienyl)ethyl]boronic acid] are greater than 5000 nM and 500 to 5000 nM.
With `CCc1cccc(C[C@H](NC(C)=O)B(O)O)c1` [Example 77, (R)-(1-acetamido-2-(3-ethylphenyl)ethyl)boronic acid], the IC50 in assay [2] (setting [4]) fell in the range of 500 to 5000 nM.
